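Interpolation was linear, between the two tested concentrations surrounding the appropriate level; five concentrations were tested over 48 hours in 96-well plates. GI50 is the concentration that inhibits growth by half. TGI marks complete inhibition of growth.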

One test concerns KM12 colon. Briefly: NCI tumour cell line growth inhibition, 48 h.
Compound `O=c1oc2ccccc2c(O)c1C(c1cc(OCc2ccccc2)cc(OCc2ccccc2)c1)c1c(O)c2ccccc2oc1=O` had a TGI of 14.7 µM.

`Cc1cccc(N2C(=O)C3ON(C(C(N)=O)c4ccccc4)C(c4c5ccccc5c(Cl)c5ccccc45)C3C2=O)c1C` (stereo not given) had a TGI of 8.08 µM.

`Nc1ccccc1Nc1ccccc1C(=O)[O-].Nc1ccccc1Nc1ccccc1C(=O)[O-].[Cu+2]` gave a TGI above 100 µM.

Consider `Cc1cc2c(c(C(=O)NCCC(=O)O)c1)Oc1c(cc(C)cc1C(=O)NCCC(=O)O)S2`, for which the TGI was above 100 µM.

The test system of another test is OVCAR-4 ovarian. Description: NCI tumour cell line growth inhibition, 48 h.
In the case of `C[C@]12OC[C@H](c3ccccc3)N1C(=O)C1[C@H]2CC12SCCS2` (stereo not given in full), the TGI is above 100 µM.

The compound `c1sc(NC2=NCCO2)c2c1CCCC2` registered a TGI above 100 µM.

For `Cc1c(Cl)ccc2c(=O)c3cccc(CC(=O)O)c3oc12`, the TGI was above 100 µM.

`CC(=O)C(CN1CCCCC1)C(c1ccccc1)c1c(O)c2ccccc2oc1=O` (stereo not given) had a TGI above 100 µM.

In turn, `C/C(=N\NC(=S)NC(C)C)c1nc2ncccc2[nH]1` showed a TGI above 100 µM.

Turning to `O=c1oc2ccccc2c(O)c1C(c1cc(OCc2ccccc2)cc(OCc2ccccc2)c1)c1c(O)c2ccccc2oc1=O`, the TGI was 68.4 µM.

`Cc1cccc(N2C(=O)C3ON(C(C(N)=O)c4ccccc4)C(c4c5ccccc5c(Cl)c5ccccc45)C3C2=O)c1C` (stereo not given) had a TGI of 25.3 µM.

As for `Nc1ccccc1Nc1ccccc1C(=O)[O-].Nc1ccccc1Nc1ccccc1C(=O)[O-].[Cu+2]`, the GI50 is 37.7 µM and the TGI is above 100 µM.

`Cc1cc2c(c(C(=O)NCCC(=O)O)c1)Oc1c(cc(C)cc1C(=O)NCCC(=O)O)S2` displayed a TGI above 100 µM.

A further test relates to SF-295 CNS. Briefly: NCI tumour cell line growth inhibition, 48 h.
The compound `C[C@]12OC[C@H](c3ccccc3)N1C(=O)C1[C@H]2CC12SCCS2` (stereo not given in full) registered a TGI above 100 µM.

Regarding `c1sc(NC2=NCCO2)c2c1CCCC2`, the TGI is above 100 µM.

Compound `Cc1c(Cl)ccc2c(=O)c3cccc(CC(=O)O)c3oc12` came in with a TGI above 100 µM.

In turn, `CC(=O)C(CN1CCCCC1)C(c1ccccc1)c1c(O)c2ccccc2oc1=O` (stereo not given) displayed a TGI above 100 µM.

`C/C(=N\NC(=S)NC(C)C)c1nc2ncccc2[nH]1` had a TGI of 35.6 µM.

With `O=c1oc2ccccc2c(O)c1C(c1cc(OCc2ccccc2)cc(OCc2ccccc2)c1)c1c(O)c2ccccc2oc1=O`, the TGI was determined as 24 µM.

For `Cc1cccc(N2C(=O)C3ON(C(C(N)=O)c4ccccc4)C(c4c5ccccc5c(Cl)c5ccccc45)C3C2=O)c1C` (stereo not given), the TGI was 23 µM.

For the compound `Nc1ccccc1Nc1ccccc1C(=O)[O-].Nc1ccccc1Nc1ccccc1C(=O)[O-].[Cu+2]`, the TGI was above 100 µM.

On to `Cc1cc2c(c(C(=O)NCCC(=O)O)c1)Oc1c(cc(C)cc1C(=O)NCCC(=O)O)S2`, for which the TGI is above 100 µM.

For the next test, the system named is SK-MEL-2 melanoma. Briefly: NCI tumour cell line growth inhibition, 48 h.
Take `C[C@]12OC[C@H](c3ccccc3)N1C(=O)C1[C@H]2CC12SCCS2` (stereo not given in full): the TGI was above 100 µM.

Consider `c1sc(NC2=NCCO2)c2c1CCCC2`, for which the TGI was above 100 µM.

The compound `Cc1c(Cl)ccc2c(=O)c3cccc(CC(=O)O)c3oc12` had a TGI above 100 µM.

Take `CC(=O)C(CN1CCCCC1)C(c1ccccc1)c1c(O)c2ccccc2oc1=O` (stereo not given): the TGI was above 100 µM.

Compound `C/C(=N\NC(=S)NC(C)C)c1nc2ncccc2[nH]1` came in with a TGI above 77.6 µM.

The compound `O=c1oc2ccccc2c(O)c1C(c1cc(OCc2ccccc2)cc(OCc2ccccc2)c1)c1c(O)c2ccccc2oc1=O` showed a TGI of 27.3 µM.

The compound `Cc1cccc(N2C(=O)C3ON(C(C(N)=O)c4ccccc4)C(c4c5ccccc5c(Cl)c5ccccc45)C3C2=O)c1C` (stereo not given) yielded a TGI of 20 µM.

`Nc1ccccc1Nc1ccccc1C(=O)[O-].Nc1ccccc1Nc1ccccc1C(=O)[O-].[Cu+2]` yielded a TGI above 100 µM.

As for `Cc1cc2c(c(C(=O)NCCC(=O)O)c1)Oc1c(cc(C)cc1C(=O)NCCC(=O)O)S2`, the TGI is above 100 µM.

The subject of a further test is TK-10 renal. Briefly: NCI tumour cell line growth inhibition, 48 h.
For `C[C@]12OC[C@H](c3ccccc3)N1C(=O)C1[C@H]2CC12SCCS2` (stereo not given in full), the TGI was above 100 µM.

Take `c1sc(NC2=NCCO2)c2c1CCCC2`: the TGI is above 100 µM.

In turn, `Cc1c(Cl)ccc2c(=O)c3cccc(CC(=O)O)c3oc12` came in with a TGI above 100 µM.

In turn, `CC(=O)C(CN1CCCCC1)C(c1ccccc1)c1c(O)c2ccccc2oc1=O` (stereo not given) registered a TGI above 100 µM.

With `C/C(=N\NC(=S)NC(C)C)c1nc2ncccc2[nH]1`, the TGI came to 73.8 µM.

In the case of `O=c1oc2ccccc2c(O)c1C(c1cc(OCc2ccccc2)cc(OCc2ccccc2)c1)c1c(O)c2ccccc2oc1=O`, the TGI turned out to be 33.4 µM.

As to `Cc1cccc(N2C(=O)C3ON(C(C(N)=O)c4ccccc4)C(c4c5ccccc5c(Cl)c5ccccc45)C3C2=O)c1C` (stereo not given), the TGI turned out to be 25.3 µM.

For the compound `Nc1ccccc1Nc1ccccc1C(=O)[O-].Nc1ccccc1Nc1ccccc1C(=O)[O-].[Cu+2]`, the TGI was above 100 µM.

On to `Cc1cc2c(c(C(=O)NCCC(=O)O)c1)Oc1c(cc(C)cc1C(=O)NCCC(=O)O)S2`, for which the TGI is above 100 µM.

The next test relates to U251 CNS. Briefly: NCI tumour cell line growth inhibition, 48 h.
The compound `C[C@]12OC[C@H](c3ccccc3)N1C(=O)C1[C@H]2CC12SCCS2` (stereo not given in full) came in with a TGI above 100 µM.

In turn, `c1sc(NC2=NCCO2)c2c1CCCC2` showed a TGI above 100 µM.

Take `Cc1c(Cl)ccc2c(=O)c3cccc(CC(=O)O)c3oc12`: the TGI is above 100 µM.

With `CC(=O)C(CN1CCCCC1)C(c1ccccc1)c1c(O)c2ccccc2oc1=O` (stereo not given), the TGI is above 100 µM.

Take `C/C(=N\NC(=S)NC(C)C)c1nc2ncccc2[nH]1`: the TGI is above 100 µM.

Compound `O=c1oc2ccccc2c(O)c1C(c1cc(OCc2ccccc2)cc(OCc2ccccc2)c1)c1c(O)c2ccccc2oc1=O` gave a TGI above 47.3 µM.

Turning to `Cc1cccc(N2C(=O)C3ON(C(C(N)=O)c4ccccc4)C(c4c5ccccc5c(Cl)c5ccccc45)C3C2=O)c1C` (stereo not given), the TGI turned out to be 15.6 µM.

With `Nc1ccccc1Nc1ccccc1C(=O)[O-].Nc1ccccc1Nc1ccccc1C(=O)[O-].[Cu+2]`, the TGI was above 100 µM.

`Cc1cc2c(c(C(=O)NCCC(=O)O)c1)Oc1c(cc(C)cc1C(=O)NCCC(=O)O)S2` returned a TGI above 100 µM.

Values taken from PubChem BioAssay (NCI).
